Results on one molecule are retold here after patent US8097652B2, “AMPA receptor potentiators” (Eli Lilly and Company, priority 2006, dated 2012).

The experiment has as its target T1, human iGluR4 (Homo sapiens, UniProt P48058).
T1 construct: expressed in transfected cells
The experiment is described as follows: Whole-cell voltage clamp electrophysiology of AMPA receptor potentiation in HEK293 cells expressing human iGluR4. The conditions noted are these: HEK293 cells stably expressing human iGluR4; voltage-clamped at −60 mV; 1 mM glutamate; fit to Hill equation; read-out: activity (EC50 value, potency of potentiation of the current evoked by glutamate). The class given is cell-based. From the text:
HEK293 cells stably expressing human iGluR4 (obtained as described in European Patent Application Publication No. EP-A1-0583917) are used in the electrophysiological characterization of AMPA receptor potentiators. The extracellular recording solution contains (in mM): 140 NaCl, 5 KCl, 10 HEPES, 1 MgCl2, 2 CaCl2, 10 glucose, pH=7.4 with NaOH, 295 mOsm kg-1. The intracellular recording solution contains (in mM): 140 CsCl, 1 MgCl2, 10 HEPES, (N-[2-hydroxyethyl]piperazine-N1-[2-ethanesulfonic acid]) 10 EGTA (ethylene-bis(oxyethylene-nitrilo)tetraacetic acid), pH=7.2 with CsOH, 295 mOsm kg-1. With these solutions, recording pipettes have a resistance of 2-3 MΩ. […] Responses to 1 mM glutamate are then determined in the presence of test compound. […]
In order to determine the potency of the test compound, the concentration of the test compound, both in the bathing solution and co-applied with glutamate, is increased in half log units until the maximum effect is seen. […] Reversibility of test compound activity is determined by assessing control glutamate 1 mM responses. Once the control responses to the glutamate challenge are re-established, the potentiation of these responses by 100 μM cyclothiazide is determined by its inclusion in both the bathing solution and the glutamate-containing solution. In this manner, the efficacy of the test compound relative to that of cyclothiazide can be determined. […]

T1 sequence (P48058 22-902 limits assumed): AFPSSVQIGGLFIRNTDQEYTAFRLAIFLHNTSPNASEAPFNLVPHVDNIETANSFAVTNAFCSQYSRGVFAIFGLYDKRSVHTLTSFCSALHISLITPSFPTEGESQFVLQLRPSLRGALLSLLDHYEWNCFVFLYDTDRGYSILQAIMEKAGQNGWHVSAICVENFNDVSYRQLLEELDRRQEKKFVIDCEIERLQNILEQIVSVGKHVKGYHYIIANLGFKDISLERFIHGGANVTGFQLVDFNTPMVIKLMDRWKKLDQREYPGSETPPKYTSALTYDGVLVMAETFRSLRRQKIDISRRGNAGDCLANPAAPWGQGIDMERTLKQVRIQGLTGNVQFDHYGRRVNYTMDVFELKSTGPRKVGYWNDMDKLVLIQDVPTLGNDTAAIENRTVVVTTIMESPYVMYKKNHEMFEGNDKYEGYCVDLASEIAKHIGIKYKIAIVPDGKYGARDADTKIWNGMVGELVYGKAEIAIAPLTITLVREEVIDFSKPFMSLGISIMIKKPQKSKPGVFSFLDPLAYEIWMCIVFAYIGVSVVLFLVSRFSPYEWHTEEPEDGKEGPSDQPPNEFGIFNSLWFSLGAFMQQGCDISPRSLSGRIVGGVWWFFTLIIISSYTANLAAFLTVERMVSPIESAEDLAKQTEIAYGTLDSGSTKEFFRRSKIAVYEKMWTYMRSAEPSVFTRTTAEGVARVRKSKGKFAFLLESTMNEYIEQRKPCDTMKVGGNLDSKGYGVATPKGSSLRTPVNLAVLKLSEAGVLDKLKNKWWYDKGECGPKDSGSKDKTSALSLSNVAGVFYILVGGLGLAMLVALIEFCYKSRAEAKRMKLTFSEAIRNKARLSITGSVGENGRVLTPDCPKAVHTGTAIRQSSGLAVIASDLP

For `CC(C)S(=O)(=O)NC[C@H](C)c1ccc(-c2ccc(C(=O)O)cc2C#N)cc1` [Example 1, 1-(R)-2-Cyano-4′-[1-methyl-2-(propane-2-sulfonylamino)-ethyl]-biphenyl-4-carboxylic acid], the EC50 (as a rule, the concentration needed to bring the measured effect to its halfway point) amounted to 188 ± 15.3 nM.
